Results on 1 substance are retold here after US20180284095A1, “BIOMARKERS ASSOCIATED WITH LSD1 INHIBITORS AND USES THEREOF” (Oryzon Genomics, S.A., priority 2015, published 2018).

In data set [1] the test system is C57BL/6 mice. The data set is described as follows: Experimental Autoimmune Encephalomyelitis (EAE) model, MOG35-55. In kind it is in vivo, mouse. Here is the method: In particular, the murine EAE model as described herein, using MOG35-55 and C57BL/6 mice strain, is considered a validated preclinical model of the chronic progressive form of MS.
To induce chronic EAE by active immunization, C57BL/6 mice were immunized s.c. with 100 μg of myelin oligodendrocyte glycoprotein MOG35-55 emulsified in complete Freund's adjuvant (CFA) containing 4 mg/ml Mycobacterium tuberculosis H37 RA. Mice also received i.p. injections of 200 ng of pertussis toxin on days 0 and 2.
Mice were scored daily for signs of EAE according to the following clinical scoring system: 0, no clinical signs; 0.5, partial loss of tail tonicity; 1, complete loss of tail tonicity; 2, flaccid tail and abnormal gait; 3, hind leg paralysis; 4, hind leg paralysis with hind body paresis; 5, hind and fore leg paralysis; and 6, death.

The subject of data set [2] is S100A9. The data set is described as follows: Microarray gene expression, hippocampus of SAMP8 mice (Example 3). The data set is classed as in vivo, mouse. The settings on record: for Hybridization signal sample_Cy5 S100A9 / log2 (sample/control) S100A9: SAMP8 female pool. As to the method: (§1) Total RNA was extracted from samples using the RNeasy extraction kit (Qiagen). The quality and concentration of the RNA was analyzed using the Agilent 2100 bioanalyzer and NanoDrop™ ND-1000 (Thermo Scientific). Samples with RNA integrity number (RIN)<6.0 were discarded. Total RNA (0.5 μg) amplification and labelling with Cy3 or Cy5 was carried out using the Eberwein mRNA amplification procedure (Van Gelder et al, Proc Natl Acad Sci USA 1990, 87:1663-1667) employing the MessageAmp™ aRNA amplification kit from Ambion (Applied Biosystems) following the manufacturer's instructions with minor modifications. As hybridization controls, plant mRNAs were transcribed from a plasmid containing the Zea mays Xet (xyloglucan endo-transglycosylase) cDNA and from a plasmid containing the Zea mays Zmmyb42 cDNA, independently prepared Cy3 and Cy5 labelled aRNA from these two RNAs using the Eberwein mRNA amplification procedure (as disclosed in Cerdà et al, Gen Comp Endocrinol 2008, 156:470-481).
(§2) The Cy3- and Cy5-labelled cRNAs and spikes were combined and hybridized to the microarray described in Example 2.6 for 17 h at 60° C. using Agilent's gaskets G2534-60002, G2534A hybridization chambers and DNA Hybridization Oven G2545A, according to the manufacturer's instructions. More specifically, equal amounts of Cy3 and Cy5 labeled Xet aRNA as well as equal amounts of Cy3 and Cy5 labeled Zmmyb42 aRNA were spiked into each mixture hybridized to the array. Arrays were washed and raw data were obtained using Agilent's DNA Microarray Scanner G2505B and Feature Extraction software (v10.1). The raw fluorescence intensity data were processed using applicant's proprietary software, and consists in the following operations:
(§3) Data normalization was carried out by an improved version of the nonlinear Q-splines normalization method (Workman et al., Genome Biol 2002, 3(9):research0048.1-0048.16). Normalization results were presented graphically as MA plots, as first described by Dudoit et al (Dudoit et al, Statistica Sinica, 2002, 12:111-139). Each point corresponds to a probe of the DNA array. M values (vertical axis) are the log-differential expression ratios. A values (horizontal axis) are the log-intensities of the spots. M and A are calculated from the Cy5 and Cy3 intensity values as of each spot. The DNA Array data is normalized using an improved version of non-linear Q-Splines normalization described by Workman et al., Genome Biol 2002, 3(9):research0048.1-0048.16. This process is useful to correct the deviation of the M values from the statistical assumption that most of the spots have M=0 in MA plots. The method allows the adjustment of all M values to form a cloud centered at M=0 in all intensity ranges. The data used to calculate the normalization fitting curve is the totality of the raw measurement dataset, excluding the signals for the probes for the spiked-in plant RNA controls and negative controls. In order to be able to normalize properly the data among all the experiments, the probe-set must include an important group of genes that should have no change (M=0) in the experiment. The normalization function is then applied to all the data, including controls.
(§4) Normalized and log-transformed data were used to calculate log 2 (sample/control) and Fold Change (FC) values. No background subtraction was applied to the signal intensity values during data processing, permitting robust selection of differentially expressed genes with low expression levels at the cost of potential sub-estimation of change when intensity levels are close to the array background level.
(§5) The technical replicate analysis is the statistical processing of the microarray data. Replicates were calculated to measure oligo replicates on an array or between replicates of experiments on different arrays (i.e. hybridization of the same sample). […]

The subject of data set [3] is TUBB3. The data set is described as follows: Microarray gene expression, hippocampus of SAMP8 mice (Example 3), housekeeping gene. The data set is classed as in vivo, mouse. To be noted: SAMP8 female pool. Here is the method:
as §1, §2, §3, §4, §5

Data set [4] has as its system TUBB2C. Described as above. The data set is classed as in vivo, mouse. To be noted: SAMP8 female pool. As to the method:
as §1, §2, §3, §4, §5

Data set [5] in a line: Oral availability and blood-brain barrier crossing (statement).

Consider “(−) 5-((((trans)-2-(4-(benzyloxy)phenyl)cyclopropyl)amino)methyl)-1,3,4-oxadiazol-2-amine [Compound 1]”, for which, in data set [1] (1 or 3 mg/kg oral once a day, days 12-16 and 19-23 postimmunization), the “development of EAE, disease incidence and severity measured by daily clinical score” value is given as “greatly inhibited the development of EAE”. Moreover, the “mice almost completely recovered” value in data set [1] (40 days after disease onset) is 30%. Also, the “duration of protective effect” value in data set [1] (after cessation of the treatment) is listed as “maintained for a long-period of time after cessation of the treatment”. The “mice displaying mild symptoms” value in data set [1] (group treated with 1 or 3 mg/kg oral) is reported as 40-70%. Moreover, the “Hybridization signal sample_Cy5 S100A9” value in data set [2] (HD 3.2 mg/kg/day) is recorded as 73.2282; in data set [2] (LD 0.96 mg/kg/day) it was 66.4843. Besides, the “log2 (sample/control) S100A9” value in data set [2] (HD 3.2 mg/kg/day vs SAMP8 VEH) is −0.7647; in data set [2] (LD 0.96 mg/kg/day vs SAMP8 VEH) it was −0.8381. In addition, the “S100A9 expression (microarray)” value in data set [2] (SAMP8 females, treatment vs vehicle) is on record as “down-regulated”. The “Hybridization signal sample_Cy5 TUBB3” value in data set [3] (HD 3.2 mg/kg/day) is listed as 3168.4; in data set [3] (LD 0.96 mg/kg/day) it was 3002.3. Moreover, the “log2 (sample/control) TUBB3” value amounted to 0.05769 in data set [3] (HD 3.2 mg/kg/day vs SAMP8 VEH) and 0.04498 in data set [3] (LD 0.96 mg/kg/day vs SAMP8 VEH). The “Hybridization signal sample_Cy5 TUBB2C” value in data set [4] (HD 3.2 mg/kg/day) amounted to 9173; in data set [4] (LD 0.96 mg/kg/day) it was 9392.47. Further, the “log2 (sample/control) TUBB2C” value in data set [4] (HD 3.2 mg/kg/day vs SAMP8 VEH) was determined as 0.1327; in data set [4] (LD 0.96 mg/kg/day vs SAMP8 VEH), 0.1199. In data set [5], the blood-brain barrier crossing result is on record as “cross the blood-brain barrier”. Also, in data set [5], the oral availability entry is reported as “orally available”.
